Measured values taken from the supplement of paper PMC11061612.

Key:
Assay in all cases: Bliss excess, mean over the matrix (fraction); higher = more synergy
[1] = tested on: 8-MG-BA (Glioblastoma)
How it was run: (§1)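 Cell lines in DMEM/F12 or RPMI with 10% FBS were plated in 1536-well plates, held 24 hours at 37°C, 5% CO2, then given two-drug dose matrices for 72 hours (DMSO typically 0.2%). Viability was read by CellTiter-Glo 2.0 luminescence and scaled as inhibition from 0 (vehicle wells) to 1 (blank wells). Combination Emax is the second-highest inhibition in the matrix; Bliss excess is observed combination effect minus expected EA + EB − EA·EB, EA and EB being single-agent effects.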

[2] = tested on: A498 (Kidney Carcinoma)
How it was run: as §1

[3] = tested on: ARH-77 (Non-Cancerous)
How it was run: as §1

[4] = tested on: BICR22 (Oral Cavity Carcinoma)
How it was run: as §1

[5] = tested on: CAS-1 (Glioblastoma)
How it was run: as §1

[6] = tested on: CCK-81 (Colorectal Carcinoma)
How it was run: as §1

[7] = tested on: COLO-824 (Breast Carcinoma)
How it was run: as §1

[8] = tested on: GI-ME-N (Neuroblastoma)
How it was run: as §1

[9] = tested on: HCC1954 (Breast Carcinoma)
How it was run: as §1

[10] = tested on: KARPAS-422 (B-Cell Non-Hodgkin's Lymphoma)
How it was run: as §1

[11] = tested on: LN-405 (Glioblastoma)
How it was run: as §1

[12] = tested on: NCI-H1666 (Lung Adenocarcinoma)
How it was run: as §1

[13] = tested on: NCI-H2591 (Mesothelioma)
How it was run: as §1

[14] = tested on: NY (Osteosarcoma)
How it was run: as §1

[15] = tested on: SISO (Cervical Carcinoma)
How it was run: as §1

[16] = tested on: SK-MES-1 (Squamous Cell Lung Carcinoma)
How it was run: as §1

[17] = tested on: TT (Thyroid Gland Carcinoma)
How it was run: as §1

[18] = tested on: TT2609-C02 (Thyroid Gland Carcinoma)
How it was run: as §1

[19] = tested on: U-2-OS (Osteosarcoma)
How it was run: as §1

[20] = tested on: VCaP (Prostate Carcinoma)
How it was run: as §1

SMILES	Bliss excess [1]	Bliss excess [2]	Bliss excess [3]	Bliss excess [4]	Bliss excess [5]	Bliss excess [6]	Bliss excess [7]	Bliss excess [8]	Bliss excess [9]	Bliss excess [10]	Bliss excess [11]	Bliss excess [12]	Bliss excess [13]	Bliss excess [14]	Bliss excess [15]	Bliss excess [16]	Bliss excess [17]	Bliss excess [18]	Bliss excess [19]	Bliss excess [20]
Cc1c2c(nn1C)CSCc1cc(n(C)n1)CSc1cc(c3ccccc3c1)OCCCc1c(C(=O)O)n(C)c3c-2c(Cl)ccc13 [AZD5991] + CN(C)CCCOc1ccc(-c2ccc3ncc4c(c3c2)n(C2CCOCC2)c(=O)n4C)cn1 [AZD0156] (first compound max 1 µM, 7x7, partner max 1 µM)	0.0044	-0.0274	-0.0423	0.016	0.0497	0.0379	-0.004	-0.04	0.0247	-0.0675	-0.0026	0.0068	0.0036	0.0299	0.0222	-0.0029	-0.071	0.0199	0.0132	0.0034
CC1(C)CCC(CN2CCN(c3ccc(C(=O)NS(=O)(=O)c4ccc(NCC5CCOCC5)c([N+](=O)[O-])c4)c(Oc4cnc5[nH]ccc5c4)c3)CC2)=C(c2ccc(Cl)cc2)C1 [Venetoclax] + CCN(CCO)CCCOc1ccc2c(Nc3cc(CC(=O)Nc4cccc(F)c4)[nH]n3)ncnc2c1 [AZD2811] (first compound max 1 µM, 7x7, partner max 1 µM)	0.0065	-0.0503	0.198	-0.0138	-0.0052	-0.0122	0.0087	-0.0202	0.0579	0.242	0.0185	0.0171	-0.009	-0.0304	-0.0091	-0.0139	-0.0834	-0.0276	-0.0188	0.0436
COc1cccc(OCCCN)c1-c1cc(Nc2cnc(C#N)cn2)n[nH]1 [Prexasertib] + CCc1c2c(nc3ccc(O)cc13)-c1cc3c(c(=O)n1C2)COC(=O)[C@]3(O)CC [SN-38] (first compound max 1 µM, 7x7, partner max 0.3 µM)	-0.0166	-0.105	-0.0304	-0.0684	0.0383	-0.0968	0.101	-0.0326	0.123	0.0037	0.0786	-0.0269	-0.0353	-0.0647	0.0277	-0.0507	-0.0758	-0.0467	-0.0551	-0.0541
Cc1c2c(nn1C)CSCc1cc(n(C)n1)CSc1cc(c3ccccc3c1)OCCCc1c(C(=O)O)n(C)c3c-2c(Cl)ccc13 [AZD5991] + C[C@@H](Nc1cc(F)cc(F)c1)c1cc(C(=O)N(C)C)cc2c(=O)cc(N3CCOCC3)oc12 [AZD8186] (first compound max 1 µM, 7x7, partner max 3 µM)	0.0956	-0.0252	-0.0404	-0.0014	-0.0108	0.0103	0.0043	-0.0631	0.031	-0.0143	0.028	-0.0359	-0.0164	0.08	-0.0067	0.052	-0.0219	-0.0192	-0.0073	-0.0086
CCN(CCO)CCCOc1ccc2c(Nc3cc(CC(=O)Nc4cccc(F)c4)[nH]n3)ncnc2c1 [AZD2811] + O=C(c1cc(Cc2n[nH]c(=O)c3ccccc23)ccc1F)N1CCN(C(=O)C2CC2)CC1 [Olaparib] (first compound max 1 µM, 7x7, partner max 10 µM)	0.0327	-0.0656	0.0114	-0.0861	-0.0608	0.032	-0.0071	-0.0233	-0.0023	0.0267	-0.0224	-0.0746	-0.0332	-0.0339	0.0951	-0.0127	-0.0596	0.0022	0.0112	0.0014
COc1cc2c(cc1OCCCCCOc1cc3c(cc1OC)C(=O)N1C=C(C)C[C@H]1C=N3)N=C[C@@H]1CC(C)=CN1C2=O [SG3199] + O=C(c1cc(Cc2n[nH]c(=O)c3ccccc23)ccc1F)N1CCN(C(=O)C2CC2)CC1 [Olaparib] (first compound max 0.001 µM, 7x7, partner max 10 µM)	0.011	-0.0336	-0.0466	-0.0473	-0.0058	0.0003	-0.03	-0.036	-0.0356	-0.0044	0.0323	-0.0477	-0.0414	-0.0456	-0.0198	-0.0267	-0.0645	-0.0234	-0.0203	-0.0455
COc1cccc(OCCCN)c1-c1cc(Nc2cnc(C#N)cn2)n[nH]1 [Prexasertib] + CN(C)CCCOc1ccc(-c2ccc3ncc4c(c3c2)n(C2CCOCC2)c(=O)n4C)cn1 [AZD0156] (first compound max 1 µM, 7x7, partner max 1 µM)	-0.0349	0.034	0.0018	-0.0429	-0.0336	-0.0133	-0.0047	0.0737	-0.0298	0.0128	0.0013	-0.0291	-0.0141	0.0007	-0.0056	-0.0471	-0.004	-0.0426	0.0176	-0.0463
COc1cccc(OCCCN)c1-c1cc(Nc2cnc(C#N)cn2)n[nH]1 [Prexasertib] + C=CCn1c(=O)c2cnc(Nc3ccc(N4CCN(C)CC4)cc3)nc2n1-c1cccc(C(C)(C)O)n1 [AZD1775] (first compound max 1 µM, partner max 1 µM)	0.0358	-0.0716	0.0493	0.0175	-0.0363	0.0523	0.0432	0.0161	0.114	0.0841	0.0469	-0.0629	0.0951	-0.008	0.0814	-0.0425	-0.103	0.0015	0.0506	0.022
COc1nnc2ccc(N3CCC(c4ccc(OCCN5CCN(C)C(=O)[C@H]5C)cc4)CC3)nn12 [AZD5153] + Cc1c2c(nn1C)CSCc1cc(n(C)n1)CSc1cc(c3ccccc3c1)OCCCc1c(C(=O)O)n(C)c3c-2c(Cl)ccc13 [AZD5991] (first compound max 1 µM, 7x7, partner max 1 µM)	-0.0367	-0.0226	-0.04	-0.0013	-0.0333	-0.0485	-0.0584	-0.0142	0.0771	-0.0432	-0.0084	-0.0538	-0.0657	-0.0656	0.0698	-0.0084	-0.0291	-0.0295	0.0074	-0.0242
CCc1c2c(nc3ccc(O)cc13)-c1cc3c(c(=O)n1C2)COC(=O)[C@]3(O)CC [SN-38] + O=C(c1cc(Cc2n[nH]c(=O)c3ccccc23)ccc1F)N1CCN(C(=O)C2CC2)CC1 [Olaparib] (first compound max 0.3 µM, 7x7, partner max 10 µM)	0.0671	0.036	0.0446	0.0626	-0.0274	0.0414	–	0.0672	–	0.0276	-0.0524	0.0889	-0.0219	0.071	0.0546	–	0.0545	–	0.0159	0.104
CC(=O)c1c(C)c2cnc(Nc3ccc(N4CCNCC4)cn3)nc2n(C2CCCC2)c1=O [Palbociclib] + CN(CC[C@H](CSC1=CC=CC=C1)NC2=C(C=C(C=C2)S(=O)(=O)NC(=O)C3=CC=C(C=C3)N4CCC(CC4)[C@H](C5=CC=CC=C5C6=CC=C(C=C6)Cl)O)S(=O)(=O)C(F)(F)F)CCO [AZD4320] (first compound max 10 µM, 7x7, partner max 1 µM)	-0.001	-0.134	-0.0498	–	-0.143	–	0.0326	-0.0771	-0.0722	–	-0.0276	–	-0.0845	–	-0.0669	-0.0549	–	-0.0615	-0.0727	–
C[C@@H](c1ccc2nccn2c1)n1nnc2ncc(-c3cnn(C)c3)nc21 [Savolitinib] + CN(CC[C@H](CSC1=CC=CC=C1)NC2=C(C=C(C=C2)S(=O)(=O)NC(=O)C3=CC=C(C=C3)N4CCC(CC4)[C@H](C5=CC=CC=C5C6=CC=C(C=C6)Cl)O)S(=O)(=O)C(F)(F)F)CCO [AZD4320] (first compound max 1 µM, 7x7, partner max 1 µM)	-0.0399	-0.0589	-0.0322	–	-0.0975	–	-0.0101	-0.0699	-0.0198	–	-0.0518	–	-0.0714	–	-0.045	-0.0188	–	-0.103	-0.0128	–
COc1nnc2ccc(N3CCC(c4ccc(OCCN5CCN(C)C(=O)[C@H]5C)cc4)CC3)nn12 [AZD5153] + CN(CC[C@H](CSC1=CC=CC=C1)NC2=C(C=C(C=C2)S(=O)(=O)NC(=O)C3=CC=C(C=C3)N4CCC(CC4)[C@H](C5=CC=CC=C5C6=CC=C(C=C6)Cl)O)S(=O)(=O)C(F)(F)F)CCO [AZD4320] (first compound max 1 µM, 7x7, partner max 1 µM)	0.002	0.0103	-0.019	–	0.0455	–	0.057	0.0077	-0.0119	–	0.0448	–	0.0088	–	-0.0052	0.0704	–	0.0257	0.0178	–
